Patent US8895585B2, “Nicotinamide derivative or salt thereof” (FUJIFILM Corporation, priority 2010, dated 2014)
Where two headings read alike, the source gives them in different places.

Key:
[1] = molecular target: T1, glutathione S-transferase (GST)-fused full-length human Syk protein (Homo sapiens, UniProt P43405); experiment: Syk enzyme assay; assay type: biochemical; conditions: Syk enzyme assay, Test Example 1; read-out: IC50 of Syk-inhibitory activity
T1 construct: (GST)-fused full-length human Syk protein; GST (glutathione S-transferase); purchased Carna Biosciences
Outline: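 GST-tagged full-length human Syk (baculovirus) preincubated with compound 15 min at room temperature (pH 7.0, 10 mM MgCl2), then reacted 40 min with 0.4 μM biotinylated peptide substrate and 27 μM ATP (final). Phosphorylation read by HTRF (615/665 nm) after EDTA stop; IC50 reported.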

[2] = system: THP-1 cells; experiment: TNFα generation assay; assay type: cell-based, human; conditions: Table 22, read-out: IC50 in TNFα generation assay
Outline: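 Secreted TNFα in supernatant quantified by ELISA or AlphaLISA after 7 h culture on human IgG-coated wells (10 μg/ml coating). Cells were IFN-γ-differentiated THP-1 (10 ng/ml, 2 days), exposed to compound for 30 min at room temperature before plating.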

[3] = Homo sapiens, THP-1, THP-1 cells

Cc1ccc(Nc2nc(N[C@@H]3CCCC[C@@H]3N)c(F)cc2C(N)=O)cn1 [Example 006-104, 6-(((1R,2S)-2-aminocyclohexyl)amino)-5-fluoro-2-((6-methylpyridin-3-yl)amino)nicotinamide]
IC50 [1]: < 10 nM
IC50 [2, 3]: 65 to 130 nM

Cc1cncc(Nc2nc(N[C@H](C)[C@H](C)N)c(F)cc2C(N)=O)c1 [Example 006-108]
IC50 [1]: 10 to 50 nM
IC50 ([2]; THP-1 cells): 65 to 130 nM

C[C@H](N)[C@@H](C)Nc1nc(Nc2cccc3ncccc23)c(C(N)=O)cc1F [Example 006-110]
IC50 [1]: < 10 nM
IC50 ([2]; THP-1 cells): 65 to 130 nM

NC(=O)c1cc(F)c(N[C@@H]2CCCC[C@@H]2N)nc1Nc1cncc(-c2ccccc2)c1 [Example 006-113, 6-(((1R,2S)-2-aminocyclohexyl)amino)-5-fluoro-2-((5-phenylpyridin-3-yl)amino)nicotinamide]
IC50 [1]: < 10 nM
IC50 [2, 3]: < 65 nM

COc1cc(Nc2nc(N[C@@H]3CCCC[C@@H]3N)c(F)cc2C(N)=O)cc(OC)n1 [Example 006-114, 6-(((1R,2S)-2-aminocyclohexyl)amino)-2-((2,6-dimethoxypyridin-4-yl)amino)-5-fluoronicotinamide]
IC50 [1]: < 10 nM
IC50 [2, 3]: 65 to 130 nM

Cn1ncc2cc(Nc3nc(NC[C@@H](N)c4ccccc4)c(F)cc3C(N)=O)ccc21 [Example 006-119, (S)-6-((2-amino-2-phenylethyl)amino)-5-fluoro-2-((1-methyl-1H-indazol-5-yl)amino)nicotinamide]
IC50 [1]: 10 to 50 nM
IC50 [2, 3]: 130 to 200 nM

NC[C@H](Nc1nc(Nc2cccc(-n3nccn3)c2)c(C(N)=O)cc1F)c1ccccc1 [Example 006-132, (R)-2-((3-(2H-1,2,3-triazol-2-yl)phenyl)amino)-6-((2-amino-1-phenylethyl)amino)-5-fluoronicotinamide]
IC50 [1]: < 10 nM
IC50 [2, 3]: 130 to 200 nM

COc1cc(Nc2nc(N[C@@H](CN)c3ccccc3)c(F)cc2C(N)=O)ccn1 [Example 006-133, (R)-6-((2-amino-1-phenylethyl)amino)-5-fluoro-2-((2-methoxypyridin-4-yl)amino)nicotinamide]
IC50 [1]: 10 to 50 nM
IC50 [2, 3]: 130 to 200 nM

CC(C)C[C@H](CN)Nc1nc(Nc2ccc3c(cnn3C)c2)c(C(N)=O)cc1F [Example 006-142, (R)-6-((1-amino-4-methylpentan-2-yl)amino)-5-fluoro-2-((1-methyl-1H-indazol-5-yl)amino)nicotinamide]
IC50 [1]: < 10 nM
IC50 [2, 3]: < 65 nM

CC(C)C[C@H](CN)Nc1nc(Nc2ccnc(-n3ccnn3)c2)c(C(N)=O)cc1F [Example 006-143, (R)-2-((2-(1H-1,2,3-triazol-1-yl)pyridin-4-yl)amino)-6-((1-amino-4-methylpentan-2-yl)amino)-5-fluoronicotinamide]
IC50 [1]: < 10 nM
IC50 [2, 3]: 130 to 200 nM

CC(C)C[C@H](CN)Nc1nc(Nc2cncc(C3CC3)c2)c(C(N)=O)cc1F [Example 006-144, (R)-6-((1-amino-4-methylpentan-2-yl)amino)-2-((5-cyclopropylpyridin-3-yl)amino)-5-fluoronicotinamide]
IC50 [1]: < 10 nM
IC50 [2, 3]: 65 to 130 nM

CCOc1cc(Nc2nc(N[C@@H](CN)CC(C)C)c(F)cc2C(N)=O)ccn1 [Example 006-145, (R)-6-((1-amino-4-methylpentan-2-yl)amino)-2-((2-ethoxypyridin-4-yl)amino)-5-fluoronicotinamide]
IC50 [1]: < 10 nM
IC50 [2, 3]: 65 to 130 nM

NC(=O)c1cc(F)c(N[C@@H]2CCCC[C@@H]2N)nc1Nc1ccnc(-n2nccn2)c1 [Example 006-146, 2-((2-(2H-1,2,3-triazol-2-yl)pyridin-4-yl)amino)-6-(((1R,2S)-2-aminocyclohexyl)amino)-5-fluoronicotinamide]
IC50 [1]: < 10 nM
IC50 ([2]; THP-1 cells): < 65 nM

CC(C)C[C@H](CN)Nc1nc(Nc2ccc3scnc3c2)c(C(N)=O)cc1F [Example 006-147, (R)-6-((1-amino-4-methylpentan-2-yl)amino)-2-(benzo[d]thiazol-5-ylamino)-5-fluoronicotinamide]
IC50 [1]: < 10 nM
IC50 [2, 3]: 130 to 200 nM

Cc1cnc2cc(Nc3nc(N[C@@H](CN)CC(C)C)c(F)cc3C(N)=O)ccc2n1 [Example 006-148, (R)-6-((1-amino-4-methylpentan-2-yl)amino)-5-fluoro-2-((2-methylquinoxalin-6-yl)amino)nicotinamide]
IC50 [1]: < 10 nM
IC50 [2, 3]: 130 to 200 nM

CC(C)C[C@H](CN)Nc1nc(Nc2ccnc(-n3cncn3)c2)c(C(N)=O)cc1F [Example 006-153, (R)-2-((2-(1H-1,2,4-triazol-1-yl)pyridin-4-yl)amino)-6-((1-amino-4-methylpentan-2-yl)amino)-5-fluoronicotinamide]
IC50 [1]: < 10 nM
IC50 [2, 3]: < 65 nM

CC(C)C[C@H](CN)Nc1nc(Nc2ccnc(-n3nccn3)c2)c(C(N)=O)cc1F [Example 006-154, (R)-2-((2-(2H-1,2,3-triazol-2-yl)pyridin-4-yl)amino)-6-((1-amino-4-methylpentan-2-yl)amino)-5-fluoronicotinamide]
IC50 [1]: < 10 nM
IC50 [2, 3]: 65 to 130 nM

CC(C)C[C@H](CN)Nc1nc(Nc2ccnc(-c3ccoc3)c2)c(C(N)=O)cc1F [Example 006-155, (R)-6-((1-amino-4-methylpentan-2-yl)amino)-5-fluoro-2-((2-(furan-3-yl)pyridin-4-yl)amino)nicotinamide]
IC50 [1]: < 10 nM
IC50 [2, 3]: 65 to 130 nM

COc1cc(Nc2nc(N[C@@H](CN)CC(C)C)c(F)cc2C(N)=O)cc(OC)n1 [Example 006-156, (R)-6-((1-amino-4-methylpentan-2-yl)amino)-2-((2,6-dimethoxypyridin-4-yl)amino)-5-fluoronicotinamide]
IC50 [1]: < 10 nM
IC50 [2, 3]: 130 to 200 nM

CC(C)CC(Nc1nc(Nc2ccc3ncccc3c2)c(C(N)=O)cc1F)[C@H](C)N (stereo partly drawn) [Example 006-159, 6-(((2S)-2-amino-5-methylhexan-3-yl)amino)-5-fluoro-2-(quinolin-6-ylamino)nicotinamide]
IC50 [1]: < 10 nM
IC50 [2, 3]: 130 to 200 nM

CC(C)[C@H](CN)Nc1nc(Nc2ccc3ncccc3c2)c(C(N)=O)cc1F [Example 006-160, (R)-6-((1-amino-3-methylbutan-2-yl)amino)-5-fluoro-2-(quinolin-6-ylamino)nicotinamide]
IC50 [1]: < 10 nM
IC50 [2, 3]: 65 to 130 nM

CCC[C@H](CN)Nc1nc(Nc2ccc3ncccc3c2)c(C(N)=O)cc1F [Example 006-161, (R)-6-((1-aminopentan-2-yl)amino)-5-fluoro-2-(quinolin-6-ylamino)nicotinamide]
IC50 [1]: < 10 nM
IC50 [2, 3]: < 65 nM

NC(=O)c1cc(F)c(N[C@@H]2CCCC[C@@H]2N)nc1Nc1cncc(-c2ccccc2F)c1 [Example 006-166, 6-(((1R,2S)-2-aminocyclohexyl)amino)-5-fluoro-2-((5-(2-fluorophenyl)pyridin-3-yl)amino)fluoronicotinamide]
IC50 [1]: < 10 nM
IC50 ([2]; THP-1 cells): < 65 nM

NC(=O)c1cc(F)c(N[C@@H]2CCCC[C@@H]2N)nc1Nc1cncc(C2CC2)c1 [Example 006-167, 6-(((1R,2S)-2-aminocyclohexyl)amino)-2-((5-cycylopropylpyridin-3-yl)amino)-5-fluoronicotinamide]
IC50 [1]: < 10 nM
IC50 [2, 3]: < 65 nM

NC(=O)c1cc(F)c(N[C@@H]2CCCC[C@@H]2N)nc1Nc1cncc(-n2cccn2)c1 [Example 006-168, 2-((5-(1H-pyrazol-1-yl)pyridin-3-yl)amino)-6-(((1R,2S)-2-aminocyclohexyl)amino)-5-fluoronicotinamide]
IC50 [1]: < 10 nM
IC50 ([2]; THP-1 cells): < 65 nM

CCCOc1cc(Nc2nc(N[C@@H]3CCCC[C@@H]3N)c(F)cc2C(N)=O)ccn1 [Example 006-169, 6-(((1R,2S)-2-aminocyclohexyl)amino)-5-fluoro-2-((2-propoxypyridin-4-yl)amino)nicotinamide]
IC50 [1]: < 10 nM
IC50 [2, 3]: < 65 nM

CC(C)C[C@H](CN)Nc1nc(Nc2cncc(-n3cccn3)c2)c(C(N)=O)cc1F [Example 006-170, (R)-2-((5-(1H-pyrazol-1-yl)pyridin-3-yl)amino)-6-((1-amino-4-methylpentan-2-yl)amino)-5-fluoronicotinamide]
IC50 [1]: < 10 nM
IC50 [2, 3]: 65 to 130 nM

COc1ccc2cc(Nc3nc(N[C@@H]4CCCC[C@@H]4N)c(F)cc3C(N)=O)cnc2c1 [Example 006-172, 6-(((1R,2S)-2-aminocyclohexyl)amino)-5-fluoro-2-((7-methoxyquinolin-3-yl)amino)nicotinamide]
IC50 [1]: < 10 nM
IC50 ([2]; THP-1 cells): 65 to 130 nM

COc1ccc2cc(Nc3nc(N[C@@H](CN)CC(C)C)c(F)cc3C(N)=O)cnc2c1 [Example 006-176, (R)-6-((1-amino-4-methylpentan-2-yl)amino)-5-fluoro-2-((7-methoxyquinolin-3-yl)amino)nicotinamide]
IC50 [1]: < 10 nM
IC50 [2, 3]: 65 to 130 nM

CC[C@@H](Nc1nc(Nc2ccc3ncccc3c2)c(C(N)=O)cc1F)[C@H](C)N [Example 006-178, 6-(((2S,3R)-2-aminopentan-3-yl)amino)-5-fluoro-2-((quinolin-6-yl)amino)nicotinamide]
IC50 [1]: < 10 nM
IC50 [2, 3]: < 65 nM

CC(C)C[C@H](CN)Nc1nc(Nc2cncc(Cl)c2)c(C(N)=O)cc1F [Example 006-180, (R)-6-((1-amino-4-methylpentan-2-yl)amino)-2-((5-chloropyridin-3-yl)amino)-5-fluoronicotinamide]
IC50 [1]: < 10 nM
IC50 [2, 3]: 130 to 200 nM

NC[C@H](Nc1nc(Nc2ccc3ncccc3c2)c(C(N)=O)cc1F)C1CC1 [Example 006-186, (R)-6-((2-amino-1-cyclopropylethyl)amino)-5-fluoro-2-((quinolin-6-yl)amino)nicotinamide]
IC50 [1]: < 10 nM
IC50 [2, 3]: < 65 nM
